Among the data in patent US11214565B2, “Compound, compositions, and methods” (Denali Therapeutics Inc., priority 2015, dated 2022) are IC50 values, retold here.

A value given as a limit tells only on which side of the number the result lay.

In the assay the target is LRRK2 G2019S enzyme (Homo sapiens (Human), UniProt Q5S007, G2019S). Kind of assay: LRRK2 G2019S TR-FRET biochemical kinase assay (LRRKtide substrate). As to conditions: Table A-2; 5 nM LRRK2, 134 μM ATP, 60 minute reaction, 23° C. Here is the method: LRRK2 G2019S enzyme, Substrate (LRRKtide), ATP, TR-FRET dilution buffer, pLRRKtide antibody, 384-well assay plate, and DMSO.
Sequence of LRRK2 G2019S enzyme (Q5S007 whole entry G2019S): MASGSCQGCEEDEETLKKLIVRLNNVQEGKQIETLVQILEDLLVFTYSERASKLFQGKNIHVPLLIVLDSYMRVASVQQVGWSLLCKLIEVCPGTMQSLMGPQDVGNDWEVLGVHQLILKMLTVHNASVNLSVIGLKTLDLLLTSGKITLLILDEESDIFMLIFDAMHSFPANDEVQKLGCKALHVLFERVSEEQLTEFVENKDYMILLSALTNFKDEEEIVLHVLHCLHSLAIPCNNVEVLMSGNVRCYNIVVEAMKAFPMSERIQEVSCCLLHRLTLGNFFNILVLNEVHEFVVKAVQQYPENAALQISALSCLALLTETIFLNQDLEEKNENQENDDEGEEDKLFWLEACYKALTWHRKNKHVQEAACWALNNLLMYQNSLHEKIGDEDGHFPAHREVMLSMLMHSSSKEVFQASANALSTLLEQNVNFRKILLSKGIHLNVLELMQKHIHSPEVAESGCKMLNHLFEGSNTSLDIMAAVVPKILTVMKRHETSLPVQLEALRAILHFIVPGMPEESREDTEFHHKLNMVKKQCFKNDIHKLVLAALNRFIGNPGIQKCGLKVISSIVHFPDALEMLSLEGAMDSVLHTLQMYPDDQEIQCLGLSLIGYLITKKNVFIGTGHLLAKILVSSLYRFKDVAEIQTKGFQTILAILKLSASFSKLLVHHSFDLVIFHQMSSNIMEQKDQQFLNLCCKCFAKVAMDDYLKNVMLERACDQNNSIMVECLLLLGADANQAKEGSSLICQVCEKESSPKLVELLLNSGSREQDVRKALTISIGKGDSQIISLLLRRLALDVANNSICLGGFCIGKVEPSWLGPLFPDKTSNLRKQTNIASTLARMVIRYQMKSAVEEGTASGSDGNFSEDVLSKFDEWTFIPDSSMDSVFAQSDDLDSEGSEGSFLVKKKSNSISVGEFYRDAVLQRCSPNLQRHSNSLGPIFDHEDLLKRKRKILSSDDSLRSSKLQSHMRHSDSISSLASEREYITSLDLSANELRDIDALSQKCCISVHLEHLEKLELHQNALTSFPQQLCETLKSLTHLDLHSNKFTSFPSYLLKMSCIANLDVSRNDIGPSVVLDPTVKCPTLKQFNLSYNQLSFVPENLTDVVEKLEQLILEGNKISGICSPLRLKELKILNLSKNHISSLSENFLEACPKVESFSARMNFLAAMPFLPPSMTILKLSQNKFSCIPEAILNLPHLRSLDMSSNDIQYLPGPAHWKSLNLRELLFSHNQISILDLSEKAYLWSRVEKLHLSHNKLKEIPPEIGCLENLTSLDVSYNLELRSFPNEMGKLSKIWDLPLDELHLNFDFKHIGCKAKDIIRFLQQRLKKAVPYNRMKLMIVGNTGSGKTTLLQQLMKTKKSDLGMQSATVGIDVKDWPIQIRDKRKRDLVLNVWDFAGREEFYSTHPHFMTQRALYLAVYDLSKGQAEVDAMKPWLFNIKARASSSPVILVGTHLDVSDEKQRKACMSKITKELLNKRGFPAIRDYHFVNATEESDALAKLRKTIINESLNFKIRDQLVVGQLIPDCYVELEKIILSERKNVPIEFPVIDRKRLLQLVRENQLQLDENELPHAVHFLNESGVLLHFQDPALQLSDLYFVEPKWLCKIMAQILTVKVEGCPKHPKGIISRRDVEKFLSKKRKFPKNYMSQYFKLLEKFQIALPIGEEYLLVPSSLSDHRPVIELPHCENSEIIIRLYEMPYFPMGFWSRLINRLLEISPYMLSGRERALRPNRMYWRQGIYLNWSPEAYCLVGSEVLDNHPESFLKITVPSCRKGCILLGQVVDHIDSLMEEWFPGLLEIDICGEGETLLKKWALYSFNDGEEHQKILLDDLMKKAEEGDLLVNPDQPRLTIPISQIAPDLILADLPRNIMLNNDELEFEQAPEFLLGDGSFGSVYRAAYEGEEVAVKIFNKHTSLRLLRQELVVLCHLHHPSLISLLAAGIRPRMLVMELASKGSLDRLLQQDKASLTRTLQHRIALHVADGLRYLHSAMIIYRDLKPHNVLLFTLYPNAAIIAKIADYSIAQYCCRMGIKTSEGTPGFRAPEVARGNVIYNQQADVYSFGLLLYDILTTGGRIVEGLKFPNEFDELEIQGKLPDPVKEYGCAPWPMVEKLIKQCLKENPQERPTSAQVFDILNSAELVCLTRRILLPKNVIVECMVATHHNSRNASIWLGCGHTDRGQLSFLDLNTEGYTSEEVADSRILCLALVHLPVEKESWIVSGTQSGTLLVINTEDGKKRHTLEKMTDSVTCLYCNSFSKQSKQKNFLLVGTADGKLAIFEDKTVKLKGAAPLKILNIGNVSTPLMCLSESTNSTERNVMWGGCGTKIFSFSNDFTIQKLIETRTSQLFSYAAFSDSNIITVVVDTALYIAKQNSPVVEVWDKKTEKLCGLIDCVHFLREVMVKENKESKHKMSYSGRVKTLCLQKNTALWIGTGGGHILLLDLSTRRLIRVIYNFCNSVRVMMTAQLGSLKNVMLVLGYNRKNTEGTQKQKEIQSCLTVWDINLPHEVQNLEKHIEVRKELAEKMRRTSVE
50 mM Tris pH 7.5, 10 mM MgCl2, 1 mM EGTA, 0.01% Brij-35, 2 mM DTT, 5 nM LRRK2, 134 μM ATP, 60 minute reaction time, 23° C. reaction temperature, and 10 μL total reaction volume.
1×TR-FRET dilution buffer, 10 mM EDTA, 2 nM antibody, 23° C. reaction temperature, and 10 μL total reaction volume.
Compound solutions were prepared by initially diluting to 1 mM with DMSO. 35 μL of reference compound solution, 35 μL of test compound solution, and 35 μL HPE were successively added to the source plate (384-well assay plate, Labcyte). The plates were centrifuged at 2500 rpm for 1 minute and sealed in foil. POD was used to perform a 3.162 fold serial dilution and 100 nL of reference compound solution, test compound solution, HPE and ZPE were transferred to assay plates. The assay plate was centrifuged at 2500 rpm for 1 minute, and sealed with foil.
To perform the enzyme reaction, 5 μL of LRRKtide substrate and kinase mixture in assay buffer was added to all wells of the assay plate. The plate was centrifuged to concentrate the mixture at the bottom of the wells. The assay plate was incubated at 23° C. for 20 minutes. Following incubation, 5 μL of 2×ATP in assay buffer was added to each well, and plates were centrifuged to concentrate the mixture at the bottom of the wells. The plate was incubated at 23° C. for 60 minutes.
To perform the detection of the reaction, EDTA completely mixed in TR-FRET dilution buffer was added to antibody reagent. 10 μL of detection reagent was added to all wells of each well of the assay-plate and the plate was centrifuged to concentrate the mixture at the bottom of the wells. The plate was then incubated at 23° C. for 60 minutes. Plates were read on Perkin Elmer Envision 2104 instrument in TR-FRET mode using a 340 nm excitation filter, 520 nm fluorescence emission filter, and 490 or 495 nm terbium emission filter.
B-2, C2, and D-4 respectively.
For orientation: In TR-FRET formats the signal depends on donor and acceptor labels being close together.

By IC50 is commonly meant the midpoint of a concentration-inhibition curve. A lower IC50 goes with higher potency.

As to `Cc1c(Nc2ncc(Cl)c(C3CC3)n2)cnn1C(CF)CF` [Compound A-43, 5-chloro-4-cyclopropyl-N-[1-[2-fluoro-1-(fluoromethyl)ethyl]-5-methyl-pyrazol-4-yl]pyrimidin-2-amine], the IC50 was less than 30 nM.
The same measure for `Cc1nn(C(CF)CF)cc1Nc1ncc(Cl)c(C2CC2)n1` [Compound A-44, 5-chloro-4-cyclopropyl-N-[1-[2-fluoro-1-(fluoromethyl)ethyl]-3-methyl-pyrazol-4-yl]pyrimidin-2-amine]: less than 30 nM; for `FCC(CF)n1ncc(Nc2ncc(C(F)(F)F)c(C3CC3)n2)c1Cl` [Compound A-45, N-[5-chloro-1-[2-fluoro-1-(fluoromethyl)ethyl]pyrazol-4-yl]-4-cyclopropyl-5-(trifluoromethyl)pyrimidin-2-amine]: less than 30 nM.
Compound `FCC(CF)n1cc(Nc2ncc(C(F)(F)F)c(C3CC3)n2)c(Cl)n1` [Compound A-46, N-[3-chloro-1-[2-fluoro-1-(fluoromethyl)ethyl]pyrazol-4-yl]-4-cyclopropyl-5-(trifluoromethyl)pyrimidin-2-amine] yielded an IC50 of less than 30 nM.
To `Cc1nn(C2(C#N)CC2)cc1Nc1ncc(C(F)(F)F)c(C2CC2)n1` [Compound A-47, 1-[4-[[4-cyclopropyl-5-(trifluoromethyl)pyrimidin-2-yl]amino]-3-methyl-pyrazol-1-yl]cyclopropanecarbonitrile] belongs less than 30 nM; to `F[C@H]1CN(C2COC2)CC[C@@H]1n1ncc(Nc2ncc(C(F)(F)F)c(C3CC3)n2)c1Cl` [Compound A-48, N-(5-chloro-1-((3S,4S)-3-fluoro-1-(oxetan-3-yl)piperidin-4-yl)-1H-pyrazol-4-yl)-4-cyclopropyl-5-(trifluoromethyl)pyrimidin-2-amine], less than 30 nM; to `CCn1cnc(C(C)(C)n2cc(Nc3ncc(C(F)(F)F)c(C4CC4)n3)c(C)n2)n1` [Compound A-51, 4-cyclopropyl-N-(1-(2-(1-ethyl-1H-1,2,4-triazol-3-yl)propan-2-yl)-3-methyl-1H-pyrazol-4-yl)-5-(trifluoromethyl)pyrimidin-2-amine], less than 30 nM.
The same measure for `Cc1nn(C2(c3ncn(C)n3)CC2)cc1Nc1ncc(C(F)(F)F)c(C2CC2)n1` [Compound A-52, 4-cyclopropyl-N-[3-methyl-1-[1-(1-methyl-1,2,4-triazol-3-yl)cyclopropyl]pyrazol-4-yl]-5-(trifluoromethyl)pyrimidin-2-amine]: more than 60 nM; for `Cc1nn(C(C)(C)c2ncn(C)n2)cc1Nc1ncc(Br)c(C2CC2)n1` [Compound A-53, 5-bromo-4-cyclopropyl-N-(3-methyl-1-(2-(1-methyl-1H-1,2,4-triazol-3-yl)propan-2-yl)-1H-pyrazol-4-yl)pyrimidin-2-amine]: less than 30 nM; for `Cc1c(Nc2ncc(C(F)(F)F)c(C3CC3)n2)cnn1Cc1ccn(C)n1` [Compound A-54, 4-cyclopropyl-N-[5-methyl-1-[(1-methylpyrazol-3-yl)methyl]pyrazol-4-yl]-5-(trifluoromethyl)pyrimidin-2-amine]: less than 30 nM.
To `Cc1nn(Cc2ccn(C)n2)cc1Nc1ncc(C(F)(F)F)c(C2CC2)n1` [Compound A-55, 4-cyclopropyl-N-(3-methyl-1-((1-methyl-1H-pyrazol-3-yl)methyl)-1H-pyrazol-4-yl)-5-(trifluoromethyl)pyrimidin-2-amine] belongs less than 30 nM; to `Cc1nn(C(C)(C)c2cn(C)cn2)cc1Nc1ncc(C(F)(F)F)c(C2CC2)n1` [Compound A-56, 4-cyclopropyl-N-(3-methyl-1-(2-(1-methyl-1H-imidazol-4-yl)propan-2-yl)-1H-pyrazol-4-yl)-5-(trifluoromethyl)pyrimidin-2-amine], less than 30 nM.
Take `CC(C)(O)Cn1ncc(Nc2ncc(C(F)(F)F)c(C3CC3)n2)c1Cl` [Compound A-57, 1-[5-chloro-4-[[4-cyclopropyl-5-(trifluoromethyl)pyrimidin-2-yl]amino]pyrazol-1-yl]-2-methyl-propan-2-ol]: the concentration for half-maximal inhibition (IC50) is more than 60 nM.
On to `Cc1nn(C(C)(C)c2nc[nH]n2)cc1Nc1ncc(C(F)(F)F)c(C2CC2)n1` [Compound A-58, N-(1-(2-(1H-1,2,4-triazol-3-yl)propan-2-yl)-3-methyl-1H-pyrazol-4-yl)-4-cyclopropyl-5-(trifluoromethyl)pyrimidin-2-amine], for which the 50% inhibitory concentration (IC50) is less than 30 nM.
To `FC(F)(F)c1cnc(Nc2cnn(CC3(CN4CCOCC4)CC3)c2Cl)nc1C1CC1` [Compound A-63, N-[5-chloro-1-[[1-(morpholinomethyl)cyclopropyl]methyl]pyrazol-4-yl]-4-cyclopropyl-5-(trifluoromethyl)pyrimidin-2-amine] belongs 30 to 60 nM.
To `Cn1cnc(C(C)(C)n2cc(Nc3ncc(C(F)(F)F)c(C4CC4)n3)c(CO)n2)n1` [Compound A-66] belongs more than 60 nM.
For `Cc1nn(C(C)(C)c2ccn[nH]2)cc1Nc1ncc(C(F)(F)F)c(C2CC2)n1` [Compound A-67, 4-cyclopropyl-N-[3-methyl-1-[1-methyl-1-(1H-pyrazol-5-yl)ethyl]pyrazol-4-yl]-5-(trifluoromethyl)pyrimidin-2-amine], the IC50 is less than 30 nM.
To `Cc1c(Nc2ncc(C(F)(F)F)c(C3CC3)n2)cnn1[C@H]1CC2C(C1)[C@H]2c1ncnn1C` (stereo partly drawn) [Compound A-68, 4-cyclopropyl-N-(5-methyl-1-((1R,3s,5S,6r)-6-(1-methyl-1H-1,2,4-triazol-5-yl)bicyclo[3.1.0]hexan-3-yl)-1H-pyrazol-4-yl)-5-(trifluoromethyl)pyrimidin-2-amine] belongs less than 30 nM; to `Cc1nn([C@H]2CC3C(C2)[C@H]3c2ncn(C)n2)cc1Nc1ncc(C(F)(F)F)c(C2CC2)n1` (stereo partly drawn) [Compound A-69, 4-cyclopropyl-N-(3-methyl-1-((1R,3r,5S,6r)-6-(1-methyl-1H-1,2,4-triazol-3-yl)bicyclo[3.1.0]hexan-3-yl)-1H-pyrazol-4-yl)-5-(trifluoromethyl)pyrimidin-2-amine], less than 30 nM.
For the compound `Cc1nn([C@H]2CC3C(C2)[C@H]3c2ncnn2C)cc1Nc1ncc(C(F)(F)F)c(C2CC2)n1` (stereo partly drawn) [Compound A-70, 4-cyclopropyl-N-(3-methyl-1-((1R,3s,5S,6r)-6-(1-methyl-1H-1,2,4-triazol-5-yl)bicyclo[3.1.0]hexan-3-yl)-1H-pyrazol-4-yl)-5-(trifluoromethyl)pyrimidin-2-amine], the IC50 was less than 30 nM.
To `Cc1nn(C(C)(C)c2cn[nH]n2)cc1Nc1ncc(C(F)(F)F)c(C2CC2)n1` [Compound A-71, N-(1-(2-(2H-1,2,3-triazol-4-yl)propan-2-yl)-3-methyl-1H-pyrazol-4-yl)-4-cyclopropyl-5-(trifluoromethyl)pyrimidin-2-amine] belongs less than 30 nM; to `Cc1nnc(C(C)(C)n2cc(Nc3ncc(C(F)(F)F)c(C4CC4)n3)c(C)n2)o1` [Compound A-74, 4-cyclopropyl-N-(3-methyl-1-(2-(5-methyl-1,3,4-oxadiazol-2-yl)propan-2-yl)-1H-pyrazol-4-yl)-5-(trifluoromethyl)pyrimidin-2-amine], 30 to 60 nM; to `Cc1nn(C(F)(F)c2ncn(C)n2)cc1Nc1ncc(C(F)(F)F)c(C2CC2)n1` [Compound A-75, 4-cyclopropyl-N-[1-[difluoro(1-methyl-1H-1,2,4-triazol-3-yl)methyl]-3-methyl-pyrazol-4-yl]-5-(trifluoromethyl)pyrimidin-2-amine], less than 30 nM.
The same measure for `Cc1nn(C(F)(F)c2ncnn2C)cc1Nc1ncc(C(F)(F)F)c(C2CC2)n1` [Compound A-76, 4-cyclopropyl-N-[1-[difluoro-(2-methyl-1,2,4-triazol-3-yl)methyl]-3-methyl-pyrazol-4-yl]-5-(trifluoromethyl)pyrimidin-2-amine]: more than 60 nM.
The compound `Cc1nn(C(F)(F)c2nc[nH]n2)cc1Nc1ncc(C(F)(F)F)c(C2CC2)n1` [Compound A-77, 4-cyclopropyl-N-(1-(difluoro(1H-1,2,4-triazol-3-yl)methyl)-3-methyl-1H-pyrazol-4-yl)-5-(trifluoromethyl)pyrimidin-2-amine] came in with an IC50 of less than 30 nM.
`Cc1c(Nc2ncc(C(F)(F)F)c(C3CC3)n2)cnn1[C@H]1C[C@H](c2ncnn2C)C1` [Compound A-80, 4-cyclopropyl-N-(5-methyl-1-((1r,3r)-3-(1-methyl-1H-1,2,4-triazol-5-yl)cyclobutyl)-1H-pyrazol-4-yl)-5-(trifluoromethyl)pyrimidin-2-amine] returned a 50% inhibitory concentration (IC50) of less than 30 nM.
`Cc1nn([C@H]2C[C@H](c3ncnn3C)C2)cc1Nc1ncc(C(F)(F)F)c(C2CC2)n1` [Compound A-81, 4-cyclopropyl-N-(3-methyl-1-((1r,3r)-3-(1-methyl-1H-1,2,4-triazol-5-yl)cyclobutyl)-1H-pyrazol-4-yl)-5-(trifluoromethyl)pyrimidin-2-amine] came in with a concentration for half-maximal inhibition (IC50) of less than 30 nM.
